Results published in patent US6821508B2, “Composition and method for topical nail treatment” (Rutgers, the State University, priority 2001, dated 2004).
≈ marks a conversion by molar mass, not a printed value. Read-outs that look alike come from different tables or passages of the source.

Assays:
[1] = Enhancer screening: tritiated water permeation through nails in Franz-type diffusion cells (toenails); details: Table 2; pyrithione gels, each relative to its own control
Method: Frozen human toenails and fingernails were obtained from tissue banks based on a protocol for size, patient history, etc. The nails were thawed at room temperature for 1 hour, and the adhering skin and tissue was removed with a pair of scissors and a scalpel. The nails were cleaned by rinsing them in a mild detergent solution (1% solution of a standard liquid soap containing sodium and potassium dodecyl benzene sulfonate and ammonium laureth sulfate), followed by two rinses in deionized water (DI water). The thickness of the nails was measured with a micrometer, and the nails were immersed in 10 mL of DI water for 24 hours just prior to use to allow complete hydration and bring all the nails to the same condition for valid comparisons (Kobayashi, et al. (1998) Chem. Pharm. Bull. 46(11):1797-1802; Walters, et al. (1981) J Invest Dermatol 76:76-79; Mertin and Lippold (1997) J Pharm Pharmacol 49:30-34).
Franz-type diffusion cells (Crown Glass Co., Somerville, N.J.), specially designed to hold the human nail were used (Malhotra and Zatz (2000) J Cosmet Sci 51:367-377). The cleaned, trimmed nails were clamped into the diffusion cells. […]
All gels were prepared using the same general procedure. […] The apparent pH of the gels was measured. Prior to use, three 10 μL aliquots of the gel were analyzed by Liquid Scintillation Counting (LSC) to validate uniformity of spiking. […]

[2] = 25° C.; Hoogerheide and Wyka (1982); cited from earlier work
[3] = Solubility of clotrimazole in PEG-20-oleyl ether receptor fluid (HPLC); assay type: physicochemical; details: aqueous PEG-20-oleyl ether surfactant solution, 37 °C, aqueous with cosolvent or surfactant or cyclodextrin, thermodynamic from solid, read-out: Solubility of clotrimazole (Mean ± SEM, n = 3)
Method: Aqueous solutions of PEG-20-oleyl ether in concentrations of 0.5%, 1%, 2%, and 5% were prepared. Excess clotrimazole was added to vials containing 10 mL of surfactant solution. For each surfactant concentration, the solubility determination was done in triplicate. The vials were agitated in a mechanical shaker bath (Precision Scientific, Chicago, Ill.) maintained at 37° C. for 24 hours. The vials were then centrifuged (Fisher Scientific, Springfield, N.J.) at 4600 rpm for 30 minutes at 25° C. The supernatant was analyzed for drug concentration by High Performance Liquid Chromatography (HPLC).
The HPLC conditions were adapted from well known methods, for example Hoogerheide, et al. ((1981) J Assoc Off Anal Chem 64:864-869) and Rifai, et al. ((1995) Clin Chem 41:387-391). The HPLC analysis was performed using a Waters 600E System Controller Pump, Waters 717 Autoinjector, Waters 486 Tunable Absorbance Detector, and Waters 700 Data Module Integrator. A reverse-phase C-18 column (Waters Novapak, 3.9×150 mm, 4μ) was used. The mobile phase consisted of a mixture of 0.025M dibasic potassium phosphate (pH adjusted to approximately 6.3 with o-phosphoric acid) and HPLC grade methanol in the ratio 1:3. A flow rate of 1 mL/minute was maintained and the detector wavelength was set at 254 nm.
Standard solutions of clotrimazole in mobile phase were prepared in the concentration range of 5-200 μg/mL. The injection volume of standard and sample solutions was 20 μL.
The chromatography conditions yielded a linear standard curve (R^2=0.9995). From the standard curve, the solubility of clotrimazole in different concentrations of PEG-20-oleyl ether was quantitatively determined.

| solubility at 24 h ([3]; 0.5% PEG-20-oleyl ether in water) [µg/mL] | solubility at 24 h ([3]; 1.0% PEG-20-oleyl ether in water) [µg/mL] | solubility at 24 h ([3]; 2.0% PEG-20-oleyl ether in water) [µg/mL] | solubility at 24 h ([3]; 5.0% PEG-20-oleyl ether in water) [µg/mL] | Molecule | EFwater [1] | solubility in alcohol [2] [mg/mL] | solubility in water [2] [mg/mL] |
| --- | --- | --- | --- | --- | --- | --- | --- |
| – | – | – | – | [Na+].[O-][n+]1ccccc1[S-] [NaPTO, sodium pyrithione] | ~1 | – | – |
| 75.2 (≈ 218 µM) | 191 (≈ 553 µM) | 499 (≈ 1450 µM) | 1350 (≈ 3930 µM) | Clc1ccccc1C(c1ccccc1)(c1ccccc1)n1ccnc1 [clotrimazole] | – | 95 (≈ 275000 µM) | < 0.01 |
| – | – | – | – | zinc pyrithione [ZnPTO] | 1.13 | – | – |
